Measured values published in patent US9518018B2, “3-alkoxy, thioalkyl and amino-4-amino-6-(substituted)picolinates and their use as herbicides” (Dow AgroSciences LLC, priority 2011, dated 2016).

How the values were obtained:
Assay in all cases: In-water applied herbicidal activity in transplanted paddy rice
Format in all cases: in vivo
[1] = test system: SCPJU = Scirpus juncoides ROXB. (Japanese bulrush); settings: for GR50 SCPJU: Table 7, dose to kill or control 50 percent; for GR50 SCPJU / GR90 SCPJU: 21 days after application; for GR90 SCPJU: Table 7, dose to kill or control 90 percent
Experimental: (§1) Weed seeds or nutlets of the desired test plant species were planted in puddled soil (mud) prepared by mixing a non-sterilized mineral soil (28 percent silt, 18 percent clay, and 54 percent sand, with a pH of about 7.3 to 7.8 and an organic matter content of about 1.0 percent) and water at a ratio of 100 kilograms (kg) of soil to 19 liters (L) of water. The prepared mud was dispensed in 250 mL aliquots into 480 mL non-perforated plastic pots with a surface area of 86.59 cm^2 leaving a headspace of 2.5 to 3 cm in each pot. Rice seeds were planted in Sun Gro MetroMix 306 planting mixture, which typically has a pH of 6.0 to 6.8 and an organic matter content of about 30 percent, in plastic plug trays. Seedlings at the second or third leaf stage of growth were transplanted into 650 mL of mud contained in 960 mL non-perforated plastic pots with a surface area of 86.59 cm^2 four days prior to herbicide application. The paddy was created by filling the 2.5 to 3 cm headspace of the pots with water. When required to ensure good germination and healthy plants, a fungicide treatment and/or other chemical or physical treatment was applied. The plants were grown for 4-14 d in a greenhouse with an approximate 14-h photoperiod which was maintained at about 29° C. during the day and 26° C. during the night. Nutrients were added as Osmocote (17:6:10, Nitrogen:Phosphorus:Potassium (N:P:K)+minor nutrients) at 2 grams (g) per cup. Water was added on a regular basis to maintain the paddy flood, and supplemental lighting was provided with overhead metal halide 1000-Watt lamps as necessary. The plants were employed for testing when they reached the second or third true leaf stage. Treatments consisted of compounds 45, 34, and 66. For technical grade compounds, a weighed amount, determined by the highest rate to be tested, was placed in an individual 120 mL glass vial and was dissolved in 20 mL of acetone to obtain concentrated stock solutions. […] The concentrated stock solutions obtained were diluted with 20 mL of an aqueous mixture containing 2.5% Agri-dex crop oil concentrate (v/v). Applications were made by injecting an appropriate amount of the stock solution into the aqueous layer of the paddy. Control plants were treated in the same manner with the solvent blank. All treated plant material received the same concentration of acetone and crop oil concentrate. The treated plants and control plants were placed in a greenhouse as described above and water was added as needed to maintain a paddy flood. After approximately 3 weeks, the condition of the test plants, compared with that of the untreated plants, was determined visually and scored on a scale of 0 to 100 percent where 0 corresponds to no injury and 100 corresponds to complete kill. By applying the well-accepted probit analysis as described by J. Berkson in Journal of the […], 48, 565 (1953) and by D. Finney in “Probit Analysis” Cambridge University Press (1952) or by plotting the mean data and fitting a logarithmic curve to the portion of the data where there was a dose response using Microsoft Excel®, the above data can be used to calculate GR50 and GR90 values, which are defined as growth reduction factors that correspond to the effective dose of herbicide required to kill or control 50 percent or 90 percent, respectively, of a target plant.

[2] = test system: ORYSA = Oryza sativa ‘Wells’ (rice); settings: for GR50 ORYSA ‘Wells’: Table 7, dose to kill or control 50 percent; for GR50 ORYSA ‘Wells’ / GR90 ORYSA ‘Wells’: 21 days after application; for GR90 ORYSA ‘Wells’: Table 7, dose to kill or control 90 percent
Experimental: as §1

[3] = test system: MOOVA = Monochoria vaginalis (BURM.f.) C.PRESL ex KUNTH (monochoria); settings: for GR50 MOOVA: Table 7, dose to kill or control 50 percent; for GR50 MOOVA / GR90 MOOVA: 21 days after application; for GR90 MOOVA: Table 7, dose to kill or control 90 percent
Experimental: as §1

[4] = test system: CYPDI = Cyperus difformis L. (small-flower flatsedge); settings: for GR50 CYPDI: Table 7, dose to kill or control 50 percent; for GR50 CYPDI / GR90 CYPDI: 21 days after application; for GR90 CYPDI: Table 7, dose to kill or control 90 percent
Experimental: as §1

[5] = test system: ORYSA = Oryza sativa ‘M202’ (rice); settings: for GR50 ORYSA ‘M202’: Table 7, dose to kill or control 50 percent; for GR50 ORYSA ‘M202’ / GR90 ORYSA ‘M202’: 21 days after application; for GR90 ORYSA ‘M202’: Table 7, dose to kill or control 90 percent
Experimental: as §1

[6] = test system: ECHCG = Echinochloa crus-galli (L.) P.BEAUV. (barnyardgrass); settings: for GR50 ECHCG: Table 7, dose to kill or control 50 percent; for GR50 ECHCG / GR90 ECHCG: 21 days after application; for GR90 ECHCG: Table 7, dose to kill or control 90 percent
Experimental: as §1

Compound: COC(=O)c1nc(-c2ccc(Cl)c(OC)c2F)c(F)c(N)c1OC [Compound 34]
- Mean Visual Injury (%)-21 Days After Application SCPJU ([1]; Table 7, 8.75 g ae/ha): 67%
- Mean Visual Injury (%)-21 Days After Application SCPJU ([1]; Table 7, 17.5 g ae/ha): 90%
- Mean Visual Injury (%)-21 Days After Application SCPJU ([1]; Table 7, 35 g ae/ha): 100%
- Mean Visual Injury (%)-21 Days After Application SCPJU ([1]; Table 7, 70 g ae/ha): 100%
- Mean Visual Injury (%)-21 Days After Application SCPJU ([1]; Table 7, 140 g ae/ha): 100%
- GR50 SCPJU [1]: <8.75 g ae/ha
- GR90 SCPJU [1]: 21.1 g ae/ha
- Mean Visual Injury (%)-21 Days After Application ORYSA ‘Wells’ ([2]; Table 7, 8.75 g ae/ha): 0%
- Mean Visual Injury (%)-21 Days After Application ORYSA ‘Wells’ ([2]; Table 7, 17.5 g ae/ha): 0%
- Mean Visual Injury (%)-21 Days After Application ORYSA ‘Wells’ ([2]; Table 7, 35 g ae/ha): 0%
- Mean Visual Injury (%)-21 Days After Application ORYSA ‘Wells’ ([2]; Table 7, 70 g ae/ha): 0%
- Mean Visual Injury (%)-21 Days After Application ORYSA ‘Wells’ ([2]; Table 7, 140 g ae/ha): 5%
- GR50 ORYSA ‘Wells’ [2]: >140 g ae/ha
- GR90 ORYSA ‘Wells’ [2]: >140 g ae/ha
- Mean Visual Injury (%)-21 Days After Application MOOVA ([3]; Table 7, 8.75 g ae/ha): 100%
- Mean Visual Injury (%)-21 Days After Application MOOVA ([3]; Table 7, 17.5 g ae/ha): 100%
- Mean Visual Injury (%)-21 Days After Application MOOVA ([3]; Table 7, 35 g ae/ha): 100%
- Mean Visual Injury (%)-21 Days After Application MOOVA ([3]; Table 7, 70 g ae/ha): 100%
- Mean Visual Injury (%)-21 Days After Application MOOVA ([3]; Table 7, 140 g ae/ha): 100%
- GR50 MOOVA [3]: <8.75 g ae/ha
- GR90 MOOVA [3]: <8.75 g ae/ha
- Mean Visual Injury (%)-21 Days After Application CYPDI ([4]; Table 7, 8.75 g ae/ha): 100%
- Mean Visual Injury (%)-21 Days After Application CYPDI ([4]; Table 7, 17.5 g ae/ha): 100%
- Mean Visual Injury (%)-21 Days After Application CYPDI ([4]; Table 7, 35 g ae/ha): 100%
- Mean Visual Injury (%)-21 Days After Application CYPDI ([4]; Table 7, 70 g ae/ha): 100%
- Mean Visual Injury (%)-21 Days After Application CYPDI ([4]; Table 7, 140 g ae/ha): 100%
- GR50 CYPDI [4]: <8.75 g ae/ha
- GR90 CYPDI [4]: <8.75 g ae/ha
- Mean Visual Injury (%)-21 Days After Application ORYSA ‘M202’ ([5]; Table 7, 8.75 g ae/ha): 0%
- Mean Visual Injury (%)-21 Days After Application ORYSA ‘M202’ ([5]; Table 7, 17.5 g ae/ha): 0%
- Mean Visual Injury (%)-21 Days After Application ORYSA ‘M202’ ([5]; Table 7, 35 g ae/ha): 0%
- Mean Visual Injury (%)-21 Days After Application ORYSA ‘M202’ ([5]; Table 7, 70 g ae/ha): 7%
- Mean Visual Injury (%)-21 Days After Application ORYSA ‘M202’ ([5]; Table 7, 140 g ae/ha): 8%
- GR50 ORYSA ‘M202’ [5]: >140 g ae/ha
- GR90 ORYSA ‘M202’ [5]: >140 g ae/ha
- Mean Visual Injury (%)-21 Days After Application ECHCG ([6]; Table 7, 8.75 g ae/ha): 0%
- Mean Visual Injury (%)-21 Days After Application ECHCG ([6]; Table 7, 17.5 g ae/ha): 7%
- Mean Visual Injury (%)-21 Days After Application ECHCG ([6]; Table 7, 35 g ae/ha): 90%
- Mean Visual Injury (%)-21 Days After Application ECHCG ([6]; Table 7, 70 g ae/ha): 98%
- Mean Visual Injury (%)-21 Days After Application ECHCG ([6]; Table 7, 140 g ae/ha): 100%
- GR50 ECHCG [6]: 25.4 g ae/ha
- GR90 ECHCG [6]: 52.9 g ae/ha

Compound: COc1c(C(=O)O)nc(-c2ccc(Cl)c(OC)c2F)c(F)c1N [Compound 45, 4-amino-6-(4-chloro-2-fluoro-3-methoxyphenyl)-5-fluoro-3-methoxypicolinic acid]
- Mean Visual Injury (%)-21 Days After Application SCPJU ([1]; Table 7, 8.75 g ae/ha): 10%
- Mean Visual Injury (%)-21 Days After Application SCPJU ([1]; Table 7, 17.5 g ae/ha): 63%
- Mean Visual Injury (%)-21 Days After Application SCPJU ([1]; Table 7, 35 g ae/ha): 93%
- Mean Visual Injury (%)-21 Days After Application SCPJU ([1]; Table 7, 70 g ae/ha): 100%
- Mean Visual Injury (%)-21 Days After Application SCPJU ([1]; Table 7, 140 g ae/ha): 100%
- GR50 SCPJU [1]: 16.8 g ae/ha
- GR90 SCPJU [1]: 42.4 g ae/ha
- Mean Visual Injury (%)-21 Days After Application ORYSA ‘Wells’ ([2]; Table 7, 8.75 g ae/ha): 0%
- Mean Visual Injury (%)-21 Days After Application ORYSA ‘Wells’ ([2]; Table 7, 17.5 g ae/ha): 0%
- Mean Visual Injury (%)-21 Days After Application ORYSA ‘Wells’ ([2]; Table 7, 35 g ae/ha): 0%
- Mean Visual Injury (%)-21 Days After Application ORYSA ‘Wells’ ([2]; Table 7, 70 g ae/ha): 0%
- Mean Visual Injury (%)-21 Days After Application ORYSA ‘Wells’ ([2]; Table 7, 140 g ae/ha): 7%
- GR50 ORYSA ‘Wells’ [2]: >140 g ae/ha
- GR90 ORYSA ‘Wells’ [2]: >140 g ae/ha
- Mean Visual Injury (%)-21 Days After Application MOOVA ([3]; Table 7, 8.75 g ae/ha): 100%
- Mean Visual Injury (%)-21 Days After Application MOOVA ([3]; Table 7, 17.5 g ae/ha): 100%
- Mean Visual Injury (%)-21 Days After Application MOOVA ([3]; Table 7, 35 g ae/ha): 100%
- Mean Visual Injury (%)-21 Days After Application MOOVA ([3]; Table 7, 70 g ae/ha): 100%
- Mean Visual Injury (%)-21 Days After Application MOOVA ([3]; Table 7, 140 g ae/ha): 100%
- GR50 MOOVA [3]: <8.75 g ae/ha
- GR90 MOOVA [3]: <8.75 g ae/ha
- Mean Visual Injury (%)-21 Days After Application CYPDI ([4]; Table 7, 8.75 g ae/ha): 67%
- Mean Visual Injury (%)-21 Days After Application CYPDI ([4]; Table 7, 17.5 g ae/ha): 100%
- Mean Visual Injury (%)-21 Days After Application CYPDI ([4]; Table 7, 35 g ae/ha): 100%
- Mean Visual Injury (%)-21 Days After Application CYPDI ([4]; Table 7, 70 g ae/ha): 100%
- Mean Visual Injury (%)-21 Days After Application CYPDI ([4]; Table 7, 140 g ae/ha): 100%
- GR50 CYPDI [4]: <8.75 g ae/ha
- GR90 CYPDI [4]: 14.2 g ae/ha
- Mean Visual Injury (%)-21 Days After Application ORYSA ‘M202’ ([5]; Table 7, 8.75 g ae/ha): 0%
- Mean Visual Injury (%)-21 Days After Application ORYSA ‘M202’ ([5]; Table 7, 17.5 g ae/ha): 0%
- Mean Visual Injury (%)-21 Days After Application ORYSA ‘M202’ ([5]; Table 7, 35 g ae/ha): 0%
- Mean Visual Injury (%)-21 Days After Application ORYSA ‘M202’ ([5]; Table 7, 70 g ae/ha): 0%
- Mean Visual Injury (%)-21 Days After Application ORYSA ‘M202’ ([5]; Table 7, 140 g ae/ha): 12%
- GR50 ORYSA ‘M202’ [5]: >140 g ae/ha
- GR90 ORYSA ‘M202’ [5]: >140 g ae/ha
- Mean Visual Injury (%)-21 Days After Application ECHCG ([6]; Table 7, 8.75 g ae/ha): 0%
- Mean Visual Injury (%)-21 Days After Application ECHCG ([6]; Table 7, 17.5 g ae/ha): 0%
- Mean Visual Injury (%)-21 Days After Application ECHCG ([6]; Table 7, 35 g ae/ha): 30%
- Mean Visual Injury (%)-21 Days After Application ECHCG ([6]; Table 7, 70 g ae/ha): 100%
- Mean Visual Injury (%)-21 Days After Application ECHCG ([6]; Table 7, 140 g ae/ha): 100%
- GR50 ECHCG [6]: 38.4 g ae/ha
- GR90 ECHCG [6]: 66.8 g ae/ha
